In PubChem BioAssay AID180 (DTP/NCI, 2004):
Several values for one entry are separate records, joined by “and”; a condition that tells them apart may be missing. Equal entries are not always repeated.

Tested on: BDF1 mice, Adenocarcinoma 755 s.c., tumor weight T/C
Test: NCI In Vivo Anticancer Drug Screen. Data for tumor model Adenocarcinoma 755 (subcutaneous) in B6D2F1 (BDF1) mice
Conditions: endpoint: mean tumor weight, higher = larger tumour
Method in brief: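 Readout: T/C, i.e. treated-group measurement over vehicle-control measurement. Endpoint is survival or tumor size in tumor-bearing mice given compound.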

[1] = dose: 150.0 mg/kg/injection, schedule: Q01DX011 (ip), vehicle: methylcellulose (MC)
[2] = dose: 30.0 mg/kg/injection, schedule: Q01DX011 (ip), vehicle: carboxymethylcellulose (CMC)
[3] = dose: 120.0 mg/kg/injection, schedule: Q01DX011 (ip), vehicle: carboxymethylcellulose (CMC)
[4] = dose: 240.0 mg/kg/injection, schedule: Q01DX011 (ip), vehicle: carboxymethylcellulose (CMC)

SMILES: S=P(N1CC1)(N1CC1)N1CC1
- T/C (dose: 0.3 mg/kg/injection, schedule: Q01DX011 (ip), vehicle: carboxymethylcellulose (CMC)): 60 % of control
- T/C (dose: 0.48 mg/kg/injection, schedule: Q01DX011 (ip), vehicle: carboxymethylcellulose (CMC)): 45 % of control
- T/C (dose: 0.58 mg/kg/injection, schedule: Q01DX011 (ip), vehicle: carboxymethylcellulose (CMC)): 91 % of control
- T/C (dose: 0.6 mg/kg/injection, schedule: Q01DX011 (ip), vehicle: carboxymethylcellulose (CMC)): 53 % of control and 62 % of control (2×)
- T/C (dose: 0.65 mg/kg/injection, schedule: Q01DX011 (ip), vehicle: carboxymethylcellulose (CMC)): 90 % of control
- T/C (dose: 0.75 mg/kg/injection, schedule: Q01DX011 (ip), vehicle: methylcellulose (MC)): 62 % of control
- T/C (dose: 0.8 mg/kg/injection, schedule: Q01DX011 (ip), vehicle: carboxymethylcellulose (CMC)): 53 % of control and 77 % of control
- T/C (dose: 1.3 mg/kg/injection, schedule: Q01DX011 (ip), vehicle: carboxymethylcellulose (CMC)): 54 % of control
- T/C (dose: 1.45 mg/kg/injection, schedule: Q01DX011 (ip), vehicle: carboxymethylcellulose (CMC)): 89 % of control and 99 % of control
- T/C (dose: 1.5 mg/kg/injection, schedule: Q01DX011 (ip), vehicle: methylcellulose (MC)): 37 % of control
- T/C (dose: 2.4 mg/kg/injection, schedule: Q01DX011 (ip), vehicle: carboxymethylcellulose (CMC)): 14 % of control and 29 % of control and 38 % of control
- T/C (dose: 2.6 mg/kg/injection, schedule: Q01DX011 (ip), vehicle: carboxymethylcellulose (CMC)): 35 % of control
- T/C (dose: 2.9 mg/kg/injection, schedule: Q01DX011 (ip), vehicle: carboxymethylcellulose (CMC)): 28 % of control and 52 % of control
- T/C (dose: 3.0 mg/kg/injection, schedule: Q01DX011 (ip), vehicle: methylcellulose (MC)): 14 % of control
- T/C (dose: 5.2 mg/kg/injection, schedule: Q01DX011 (ip), vehicle: carboxymethylcellulose (CMC)): 7 % of control and 9 % of control
- T/C (dose: 6.0 mg/kg/injection, schedule: Q01DX011 (ip), vehicle: methylcellulose (MC)): 6 % of control
- T/C (dose: 725.0 micrograms/kg/injection, schedule: Q01DX011 (ip), vehicle: carboxymethylcellulose (CMC)): 83 % of control
- T/C (dose: 1450.0 micrograms/kg/injection, schedule: Q01DX011 (ip), vehicle: carboxymethylcellulose (CMC)): 30 % of control
- T/C (dose: 2900.0 micrograms/kg/injection, schedule: Q01DX011 (ip), vehicle: carboxymethylcellulose (CMC)): 36 % of control
- T/C (dose: 5800.0 micrograms/kg/injection, schedule: Q01DX011 (ip), vehicle: carboxymethylcellulose (CMC)): 26 % of control

SMILES: CCCn1cnc2c(SCc3ccccc3F)nc(N)nc21
- T/C (dose: 3.1 mg/kg/injection, schedule: Q01DX011 (ip), vehicle: methylcellulose (MC)): 22 % of control
- T/C (dose: 6.25 mg/kg/injection, schedule: Q01DX011 (ip), vehicle: methylcellulose (MC)): 11 % of control
- T/C (dose: 12.5 mg/kg/injection, schedule: Q01DX011 (ip), vehicle: methylcellulose (MC)): 1 % of control and 5 % of control

SMILES: Cc1ccc(CSc2ncnc3nc[nH]c23)c2ccccc12
- T/C (dose: 75.0 mg/kg/injection, schedule: Q01DX011 (ip), vehicle: methylcellulose (MC)): 54 % of control
- T/C [1]: 33 % of control
- T/C (dose: 300.0 mg/kg/injection, schedule: Q01DX011 (ip), vehicle: methylcellulose (MC)): 38 % of control
- T/C (dose: 600.0 mg/kg/injection, schedule: Q01DX011 (ip), vehicle: methylcellulose (MC)): 11 % of control

SMILES: CC(C)Cn1cnc2c(SCc3ccc(Br)cc3)nc(N)nc21
- T/C (dose: 50.0 mg/kg/injection, schedule: Q01DX011 (ip), vehicle: methylcellulose (MC)): 40 % of control
- T/C [1]: 4 % of control
- T/C (dose: 200.0 mg/kg/injection, schedule: Q01DX011 (ip), vehicle: methylcellulose (MC)): 1 % of control
- T/C (dose: 400.0 mg/kg/injection, schedule: Q01DX011 (ip), vehicle: methylcellulose (MC)): 2 % of control

SMILES: CN(CC(=O)O)C(=N)N
- T/C (dose: 1500.0 mg/kg/injection, schedule: Q#A X022 (ip), vehicle: water): 86 % of control
- T/C (dose: 2500.0 mg/kg/injection, schedule: Q#A X022 (ip), vehicle: water): 66 % of control

SMILES: Nc1nnnc2nc[nH]c12
- T/C (dose: 12.5 mg/kg/injection, schedule: Q01DX011 (ip), vehicle: carboxymethylcellulose (CMC)): 75 % of control

SMILES: CN(C)CCCN1c2ccccc2Sc2ccc(Cl)cc21
- T/C (dose: 11.25 mg/kg/injection, schedule: Q01DX011 (ip), vehicle: methylcellulose (MC)): 44 % of control
- T/C (dose: 11.25 mg/kg/injection, schedule: Q01DX011 (ip), vehicle: saline): 59 % of control
- T/C (dose: 22.5 mg/kg/injection, schedule: Q01DX011 (ip), vehicle: methylcellulose (MC)): 28 % of control
- T/C (dose: 22.5 mg/kg/injection, schedule: Q01DX011 (ip), vehicle: saline): 47 % of control
- T/C (dose: 45.0 mg/kg/injection, schedule: Q01DX011 (ip), vehicle: methylcellulose (MC)): 33 % of control
- T/C (dose: 45.0 mg/kg/injection, schedule: Q01DX011 (ip), vehicle: saline): 38 % of control
- T/C (dose: 90.0 mg/kg/injection, schedule: Q01DX011 (ip), vehicle: methylcellulose (MC)): 25 % of control

SMILES: C/C(=N\NC(=O)c1ccncc1)c1cc(Cl)ccc1Cl
- T/C (dose: 30.0 mg/kg/injection, schedule: Q01DX011 (ip), vehicle: methylcellulose (MC)): 51 % of control
- T/C (dose: 60.0 mg/kg/injection, schedule: Q01DX011 (ip), vehicle: methylcellulose (MC)): 27 % of control

SMILES: CSc1ncc(Br)c(SC)n1
- T/C (dose: 31.0 mg/kg/injection, schedule: Q01DX011 (ip), vehicle: methylcellulose (MC)): 102 % of control
- T/C (dose: 62.0 mg/kg/injection, schedule: Q01DX011 (ip), vehicle: methylcellulose (MC)): 93 % of control

SMILES: CC(COS(C)(=O)=O)C(=O)N1CCN(C(=O)C(C)COS(C)(=O)=O)CC1 (centres undefined)
- T/C (dose: 28.0 mg/kg/injection, schedule: Q01DX011 (ip), vehicle: methylcellulose (MC)): 69 % of control
- T/C (dose: 57.0 mg/kg/injection, schedule: Q01DX011 (ip), vehicle: methylcellulose (MC)): 74 % of control
- T/C (dose: 113.0 mg/kg/injection, schedule: Q01DX011 (ip), vehicle: methylcellulose (MC)): 73 % of control
- T/C (dose: 225.0 mg/kg/injection, schedule: Q01DX011 (ip), vehicle: methylcellulose (MC)): 69 % of control

SMILES: CN(N=O)C(N)=O
- T/C (dose: 2.5 mg/kg/injection, schedule: Q01DX011 (ip), vehicle: methylcellulose (MC)): 109 % of control
- T/C (dose: 2.81 mg/kg/injection, schedule: Q01DX011 (ip), vehicle: carboxymethylcellulose (CMC)): 78 % of control
- T/C (dose: 3.16 mg/kg/injection, schedule: Q01DX011 (ip), vehicle: carboxymethylcellulose (CMC)): 78 % of control
- T/C (dose: 5.0 mg/kg/injection, schedule: Q01DX011 (ip), vehicle: methylcellulose (MC)): 97 % of control
- T/C (dose: 5.62 mg/kg/injection, schedule: Q01DX011 (ip), vehicle: carboxymethylcellulose (CMC)): 120 % of control
- T/C (dose: 6.32 mg/kg/injection, schedule: Q01DX011 (ip), vehicle: carboxymethylcellulose (CMC)): 76 % of control
- T/C (dose: 6.33 mg/kg/injection, schedule: Q01DX011 (ip), vehicle: carboxymethylcellulose (CMC)): 79 % of control
- T/C (dose: 7.2 mg/kg/injection, schedule: Q01DX011 (ip), vehicle: carboxymethylcellulose (CMC)): 108 % of control
- T/C (dose: 9.0 mg/kg/injection, schedule: Q01DX011 (ip), vehicle: carboxymethylcellulose (CMC)): 77 % of control
- T/C (dose: 10.0 mg/kg/injection, schedule: Q01DX011 (ip), vehicle: methylcellulose (MC)): 87 % of control
- T/C (dose: 10.12 mg/kg/injection, schedule: Q01DX011 (ip), vehicle: carboxymethylcellulose (CMC)): 109 % of control and 119 % of control
- T/C (dose: 12.0 mg/kg/injection, schedule: Q01DX011 (ip), vehicle: carboxymethylcellulose (CMC)): 79 % of control
- T/C (dose: 13.0 mg/kg/injection, schedule: Q01DX011 (ip), vehicle: carboxymethylcellulose (CMC)): 93 % of control
- T/C (dose: 15.0 mg/kg/injection, schedule: Q01DX011 (ip), vehicle: carboxymethylcellulose (CMC)): 97 % of control and 85 % of control
- T/C (dose: 18.0 mg/kg/injection, schedule: Q01DX011 (ip), vehicle: carboxymethylcellulose (CMC)): 13 % of control
- T/C (dose: 20.0 mg/kg/injection, schedule: Q01DX011 (ip), vehicle: methylcellulose (MC)): 27 % of control
- T/C (dose: 22.5 mg/kg/injection, schedule: Q01DX011 (ip), vehicle: carboxymethylcellulose (CMC)): 21 % of control and 42 % of control
- T/C (dose: 25.0 mg/kg/injection, schedule: Q01DX011 (ip), vehicle: carboxymethylcellulose (CMC)): 24 % of control

SMILES: O=C(Nc1ccc(N=Nc2ccc(O)c(C(=O)O)c2)c(S(=O)(=O)O)c1)c1ccc(C(=O)Nc2ccc(N=Nc3ccc(O)c(C(=O)O)c3)c(S(=O)(=O)O)c2)cc1
- T/C [2]: 82 % of control
- T/C (dose: 60.0 mg/kg/injection, schedule: Q01DX011 (ip), vehicle: carboxymethylcellulose (CMC)): 64 % of control
- T/C [3]: 70 % of control
- T/C [4]: 42 % of control

SMILES: OCC1OC(n2cnc3c(Br)ncnc32)C(O)C1O (centres undefined)
- T/C [2]: 74 % of control
- T/C [3]: 63 % of control
- T/C [4]: 49 % of control
